Where two headings read alike, the source gives them in different places.

Data set [1] relates to HeLa cervical carcinoma cells. As to the kind of experiment: Proliferation assay (crystal violet, 72 h). The data set is classed as cell-based. The following applies: Homo sapiens, 72 h incubation, mean ±SD (3 experiments). The method in brief: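 Cells seeded 24 h before treatment, then exposed at 37 °C for 72 h (SK-N-MC, Raji, HeLa) or 96 h (HCT116, NHDF); final DMSO <0.05%. Read-outs: MTT at 570 nm (SK-N-MC, Raji), crystal violet at 595 nm (HeLa), MTS at 490 nm (HCT116, NHDF); IC50 is 50% absorbance versus untreated control, triplicates repeated three times.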

For data set [2], the system named is HCT116 p53+/+, HCT116 p53−/−, Raji, HeLa, SK-N-MC and NHDF cells. As to the kind of experiment: Proliferation assay, ranges stated over several cell-types. The data set is classed as cell-based, human. The note with it: for IC50: Homo sapiens; for Therapeutic index, NHDF relative to HCT116 cells: range over HCT116 p53+/+ and p53−/− and over the compounds named. How it is done:
The human cancer cell types (neuroepithelioma (SK-N-MC), colon cancer (HCT116 with wild-type p53 (p53^+/+)), Burkitt's lymphoma (Raji) and cervical carcinoma (HeLa)) cells and normal human dermal fibroblasts (NHDF) were obtained from the American Type Culture Collection (ATCC, Manassas, VA, USA). HCT116 null p53 (p53^−/−) cells were obtained from the Maria Sklodowska-Curie Memorial Cancer Center and Institute of Oncology, Poland.
The SK-N-MC cells were cultured in minimum essential medium (MEM; Life Technologies, Grand Island, New York, USA) containing 10% (v/v) fetal bovine serum (FBS; Life Technologies), 1 mM sodium pyruvate (Life Technologies), 1% (v/v) non-essential amino acids (Life Technologies), 2 mM L-glutamine (Life Technologies), 100 U/mL penicillin (Life Technologies), 100 µg/mL streptomycin (Life Technologies) and 0.28 µg/mL fungizone (Bristol Myers Squibb Pharmaceuticals, Montreal, Canada). The HCT116 and NHDF cells were grown in Dulbecco's modified Eagle's medium (DMEM; Sigma-Aldrich) supplemented with 12% (v/v) heat-inactivated FBS (HCT116; Life Technologies) or 15% (v/v) FBS (NHDF; Life Technologies), 100 µg/mL of gentamicin (Polfa Warszawa S.A., Warsaw, Poland), 100 µg/mL of streptomycin (Polfa) and 100 U/mL of penicillin (Polfa). The Raji and HeLa cells were cultured in Roswell Park Memorial Institute medium (RPMI-1640; Sigma-Aldrich) with the addition of 10% (v/v) heat-inactivated FBS (Life Technologies) and the supplements described for SK-N-MC cells above. All cell lines were cultured under standard conditions at 37°C in a humidified atmosphere at 5% CO2 and were subcultured every 3–4 days as required.
The cells were seeded in 96-well plates (SK-N-MC: 1.5×10^4 cells/well; HeLa: 5.0×10^3 cells/well; Raji: 3.0×10^3 cells/well; HCT116: 3.5×10^3 cells/well; NHDF: 3.0×10^3 cells/well) 24 h prior to the addition of the novel compounds. The assays were performed using a 72 h (SK-N-MC, Raji, HeLa) or 96 h (HCT 116, NHDF) incubation period with the agents at 37°C. […] Additionally, DFO and Dp44mT were included as positive controls in all experiments as their activity is well characterized, [42], [50].
Chelator stock solutions were prepared in DMSO and diluted in media so that the final [DMSO] <0.05%. The results were expressed as a percentage of the control and the resulting IC50 values were calculated using GraphPad Prism 5 (GraphPad Software, Inc., La Jolla, CA, USA). The IC50 was defined as the concentration necessary to reduce the absorbance to 50% of the untreated control. Each individual compound was tested in triplicate in a single experiment, with each experiment being repeated three times. After incubation of HCT 116 and NHDF cells with the tested compounds, 20 µL of the CellTiter 96 Aqueous One Solution - MTS (Promega, Madison, WI, USA) solution was added to each well (with 100 µL of DMEM without phenol red) and incubated for 1 h/37°C. The optical density of the samples was analyzed at 490 nm.
MTT (3-[4,5-dimethylthiazol-2-yl]-2,5-diphenyltetrazolium bromide) was used to evaluate the anti-proliferative effects of the chelators in SK-N-MC and Raji cells. Following incubation with the investigated compounds, 10 µL of MTT (5 mg/mL in PBS; Sigma-Aldrich) was added to each well. After a 2 h (SK-N-MC) or 4 h (Raji) incubation, the plates were centrifuged, and the cells were lysed with 100 µL of 10% SDS-50% isobutanol in 0.01 M HCl (SK-N-MC) or DMSO (Raji). The absorbance was measured at 570 nm. The anti-proliferative effects of these novel agents on HeLa cells were estimated using crystal violet staining (0.5% crystal violet solution for 10 min). Finally, the wells were rinsed with water and the cells were lysed with 2% SDS. The optical density of the samples was analyzed at 595 nm.

Data set [3] concerns murine M109 lung carcinoma. On the set-up: method as in PMID 15150082. The note with it: five day treatment, 0.4 mg/kg, mice; cited from earlier work.
Details of data set [4]: method as in PMID 17003122. The note with it: high, non-optimal doses; cited from earlier work.
The mark [5] stands for this setting: HCT-116, range over HCT116 p53+/+ and p53−/− cells and over the compounds named, read-out: IC50 range in HCT116 cells.

Usually IC50 stands for the concentration at which inhibition is half-maximal. `CC(=O)N(O)CCCCCNC(=O)CCC(=O)N(O)CCCCCNC(=O)CCC(=O)N(O)CCCCCN` [DFO, desferrioxamine, reference compound] registered an IC50 in data set [1] of 14300 ± 960 nM.
Regarding `CN(C(=S)N/N=C/c1ccccc1O)C1CCCCC1` [6f], the IC50 in data set [1] worked out at 10100 ± 3600 nM.
`S=C(N/N=C/c1ccc2ccccc2n1)N1CCN(c2ccccc2)CC1` [2b]: the IC50 in data set [2] (setting [5]) was 0.8 to 90 nM; in data set [1], 200 ± 70 nM. The “Therapeutic index, NHDF relative to HCT116 cells” value in data set [2] was 0.4–0.8.
Take `CN(C(=S)N/N=C/c1ccc2ccccc2n1)C1CCCCC1` [2f]: the results for the IC50 in data set [2] (setting [5]) and in data set [1] were 0.8 to 90 nM and 940 ± 450 nM, respectively. Moreover, the “Therapeutic index, NHDF relative to HCT116 cells” value in data set [2] is given as 0.4–0.8.
With `S=C(NN=C(c1ccccn1)c1ccccn1)N1CCN(c2cnccn2)CC1` [1e], in data set [1], the IC50 came to 720 ± 70 nM.
In turn, `CN(C(=S)N/N=C/c1cnc2ccccc2n1)C1CCCCC1` [5f] yielded a half-inhibitory concentration (IC50) in data set [1] of 4090 ± 2070 nM.
`CN(C)C(=S)NN=C(c1ccccn1)c1ccccn1` [Dp44mT, di-2-pyridylketone 4,4-dimethyl-3-thiosemicarbazone, reference compound]: the IC50 in data set [2] (range over the cancer cell-types of Table 1, read-out: IC50 range, anti-cancer activity) was 2 to 40 nM; in data set [1], 40 ± 10 nM. Moreover, the “Growth of murine M109 lung carcinoma (% of the control)” value in data set [3] was 47%. Also, in data set [4], the Toxicity finding entry is “cardiac fibrosis”.
The compound `CCN1CCN(C(=S)N/N=C/c2ccc3ccccc3n2)CC1` [2a] returned an IC50 in data set [1] of 430 ± 160 nM.
